# Legend:
# [1] = test system: S. aureus ATCC 29213; experiment: microbe, parasite or virus in culture; type: cell-based, Staphylococcus aureus; settings: S. aureus ATCC 29213, MHB
# Method: (§1) The antibacterial activity of TP10-NH2-based conjugates, as well as its constituents, was evaluated by microdilution assay in Mueller Hinton broth, MHB (Table 1). […] There are, however, some exceptions. […] Its activity against two other tested bacteria was somewhat lower though.
# (§2) The antibacterial activity (bacteriostatic: MIC and bactericidal: MBC) of the tested compounds was determined in MHB (Mueller Hinton Broth, Sigma Aldrich, St. Louis, MO, USA) using a serial two-fold dilution method in 96-well microtiter plates according to CLSI recommendations, described in M07-A10 document. The exact conditions have been described previously. All experiments were performed in three replicates. The MIC90 and MIC50 values were defined as the concentrations of compounds tested that caused a 90% or 50% reduction of growth, respectively, comparing to the drug-free control.
# [2] = test system: S. epidermidis ATCC 12228; experiment: microbe, parasite or virus in culture; type: cell-based, Staphylococcus epidermidis; settings: S. epidermidis ATCC 12228, MHB
# Method: as §1, §2
# [3] = test system: E. coli ATCC 25922; experiment: microbe, parasite or virus in culture; type: cell-based, Escherichia coli; settings: E. coli ATCC 25922, MHB
# Method: as §1, §2
# [4] = test system: P. aeruginosa ATCC 27853; experiment: microbe, parasite or virus in culture; type: cell-based, Pseudomonas aeruginosa; settings: P. aeruginosa ATCC 27853, MHB
# Method: as §1, §2
# [5] = test system: HEK 293; experiment: cells; type: cell-based, human; settings: HEK 293, 72 h, MTT
# Method: (§3) Among the conjugates, LVXC-S-S-CTP10-NH2 (5) was the least cytotoxic. […] In the case of HEK 293 and LLC-PK1 cells, the IC50 values of 5 were nearly four times higher. […] Additionally, we noted that the cancer cells Hep G2 were less sensitive to the action of the given compounds than the non-cancer cells (HEK 293 and LLC-PK1).
# (§4) Cytotoxicity was assessed against three mammalian cell lines: LLC-PK1, Hep G2, and HEK 293. Multiwell (96–well) plates were seeded at 7000 cells/well in Medium 199 supplemented with 7.5% FBS, MEM Eagle’s medium supplemented with 10% FBS, or DMEM medium supplemented with 10% FBS, respectively. All media were supplemented with L-glutamine and antibiotics (penicillin/streptomycin). Cells were allowed to attach overnight. Drugs were dissolved in cell culture medium and added to wells in 100-µL aliquots of 2× concentrated solutions, in triplicates. To control wells, 100 µL of the medium were added. Cells were incubated with the studied compounds for 72 h at 37 °C and 95%/5% or 90%/10% (HEK 293 cells) CO2 atmosphere. Then, 20-µL aliquots of MTT solution in PBS (4 mg/mL) were added to all wells and plates were incubated further for 3 h in 37 °C. Formazan crystals formed were dissolved in 100 µL of DMSO and the absorbance of the solutions was measured using a multiwell plate reader (Spark, Tecan, Männedorf, Switzerland) at λ = 540 nm. Cytotoxicity was determined compared to the drug-free control. All experiments were performed in triplicates.
# [6] = test system: Hep G2; experiment: cells; type: cell-based, human; settings: Hep G2, 72 h, MTT
# Method: as §3, §4
# [7] = test system: LLC-PK1; experiment: cells; type: cell-based, pig; settings: LLC-PK1, 72 h, MTT
# Method: as §3, §4
# [8] = test system: HEK 293; experiment: ROS generation (CM-H2DCFDA, flow cytometry); type: cell-based, human; settings: for ROS HEK 293: positive cells in 24 h, class
# Method: (§5) In the positive controls treated with H2O2, the fraction of ROS-positive cells exceeded 75%. […] Strikingly, in HL-60, a biologically significant effect was observed almost immediately (after 15 min of incubation). The same was noted after 1 h in the HEK 293 cell line. […] Similarly, conjugates 4 and 5 generated ROS at the low level (less than 15% for HL-60 and less than 20% for HEK 293) (manuscript in preparation). […] For HL-60, the critical level of ROS was noted after 15 min of incubation.
# (§6) ROS generation activity was evaluated as described previously. Briefly, HEK 293 cells were seeded on 35-mm Petri dishes in the amount of 15,000 cells per plate for 24 h in DMEM medium. […] Positive controls contained 250 µM H2O2, while negative controls were without any additions. After 0.5, 2.5, 5.5, and 24 h of incubation at 37 °C, the CM-H2DCFDA molecular probe (Thermo Fischer Scientific, Waltham, USA) was added to the plates and incubation was continued for another 0.5 h. The HEK 293 cells were detached with 0.05% trypsin solution in PBS and HBSS (Hank’s Balanced Salt Solution) and suspended in fresh DMEM medium. All samples were additionally stained with 7-AAD (7-aminoactinomycin D, 0.8 µg/mL) and immediately analysed with a Guava easyCyte flow cytometer (Merc, Burlington, USA). The determinations were performed in triplicates.
# [9] = test system: HL-60; experiment: ROS generation (CM-H2DCFDA, flow cytometry); type: cell-based, human; settings: for ROS HL-60: positive cells in 24 h, class
# Method: as §5, §6
# [10] = test system: C. albicans SC 5314
# [11] = test system: C. albicans Δopt1Δopt5Δptr2Δptr22
# [12] = test system: C. albicans Gu4
# [13] = test system: C. glabrata DSM 11226
# [14] = test system: C. krusei DSM 6128
# [15] = test system: Gram-positive and Gram-negative bacteria; type: cell-based; settings: MHB, Gram-positive bacteria
# Method: as §1, §2
# [16] = target: T1, yeast DNA topoisomerase II (Saccharomyces cerevisiae, UniProt P06786); experiment: biochemical; type: biochemical; settings: class; read-out: Topoisomerase II Inhibition
# T1 construct: purchased Inspiralis (Norwich, UK)
# [17] = test system: human red blood cells; experiment: Hemolysis assay; settings: 1 h, 37 °C
# T1 sequence (P06786 whole entry): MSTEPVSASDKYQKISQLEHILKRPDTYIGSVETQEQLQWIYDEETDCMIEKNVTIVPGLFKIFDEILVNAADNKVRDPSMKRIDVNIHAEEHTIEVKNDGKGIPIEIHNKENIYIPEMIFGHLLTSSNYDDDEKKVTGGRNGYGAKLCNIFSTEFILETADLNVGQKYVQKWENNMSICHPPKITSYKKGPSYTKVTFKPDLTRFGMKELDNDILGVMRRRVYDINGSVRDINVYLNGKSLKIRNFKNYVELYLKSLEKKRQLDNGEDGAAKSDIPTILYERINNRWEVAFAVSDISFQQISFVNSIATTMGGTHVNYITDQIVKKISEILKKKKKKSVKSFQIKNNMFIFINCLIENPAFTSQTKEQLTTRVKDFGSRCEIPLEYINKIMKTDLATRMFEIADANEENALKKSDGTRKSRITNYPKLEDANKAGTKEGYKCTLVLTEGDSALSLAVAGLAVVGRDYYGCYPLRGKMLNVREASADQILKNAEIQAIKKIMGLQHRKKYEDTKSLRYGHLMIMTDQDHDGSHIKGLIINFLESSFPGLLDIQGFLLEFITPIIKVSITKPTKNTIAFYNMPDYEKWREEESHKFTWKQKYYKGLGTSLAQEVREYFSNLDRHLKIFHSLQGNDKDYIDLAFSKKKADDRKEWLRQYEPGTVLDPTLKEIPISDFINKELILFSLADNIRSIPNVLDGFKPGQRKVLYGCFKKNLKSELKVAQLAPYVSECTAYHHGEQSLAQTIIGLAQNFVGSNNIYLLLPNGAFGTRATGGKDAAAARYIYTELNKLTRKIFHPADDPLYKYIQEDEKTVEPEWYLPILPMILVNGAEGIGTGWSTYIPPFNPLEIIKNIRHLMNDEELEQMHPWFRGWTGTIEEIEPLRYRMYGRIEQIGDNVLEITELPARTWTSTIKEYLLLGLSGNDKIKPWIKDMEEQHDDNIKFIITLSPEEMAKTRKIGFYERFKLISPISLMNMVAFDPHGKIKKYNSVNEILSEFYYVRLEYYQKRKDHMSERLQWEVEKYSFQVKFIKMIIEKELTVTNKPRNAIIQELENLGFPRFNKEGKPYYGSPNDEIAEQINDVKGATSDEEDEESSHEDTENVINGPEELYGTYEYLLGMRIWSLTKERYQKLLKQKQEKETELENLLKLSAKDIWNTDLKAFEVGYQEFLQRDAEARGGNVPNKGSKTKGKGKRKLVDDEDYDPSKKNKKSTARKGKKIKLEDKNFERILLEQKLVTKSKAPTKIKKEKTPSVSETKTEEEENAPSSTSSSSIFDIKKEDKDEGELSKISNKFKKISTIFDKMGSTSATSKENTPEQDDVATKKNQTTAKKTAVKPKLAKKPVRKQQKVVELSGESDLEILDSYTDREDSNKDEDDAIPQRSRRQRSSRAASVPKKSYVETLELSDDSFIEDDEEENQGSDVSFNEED
Structure (SMILES),MIC50 [1],MIC90 [1],MIC50 [2],MIC90 [2],MIC50 [3],MIC90 [3],MIC50 [4],MIC90 [4],IC50 [5],IC50 [6],IC50 [7],ROS HEK 293 [8],MIC50 [10],MIC50 [11],MIC90 [11],MIC50 [12],MIC50 [13],MIC50 [14],IC50 [16],ROS level (positive cells) ([8]; HEK 293),further results
"CC[C@H](C)[C@H](NC(=O)[C@H](CCCCN)NC(=O)[C@H](CCCCN)NC(=O)[C@H](C)NC(=O)[C@H](CC(C)C)NC(=O)[C@H](C)NC(=O)[C@H](C)NC(=O)[C@H](CC(C)C)NC(=O)[C@H](C)NC(=O)[C@H](CCCCN)NC(=O)[C@H](CC(C)C)NC(=O)[C@H](CC(N)=O)NC(=O)[C@@H](NC(=O)[C@H](CCCCN)NC(=O)CNC(=O)[C@H](CC(C)C)NC(=O)[C@H](CC(C)C)NC(=O)[C@H](Cc1ccc(O)cc1)NC(=O)CNC(=O)[C@H](C)NC(=O)[C@@H](N)CSSC[C@H](N)C(=O)N1CCN(c2cc3c(cc2F)c(=O)c(C(=O)O)cn3C2CC2)CC1)[C@@H](C)CC)C(=O)N[C@@H](CC(C)C)C(N)=O [Compound 6, CIPC-S-S-CTP10-NH2]",3.125 µM,3.125 µM,6.25 µM,6.25 µM,6.25 µM,6.25 µM,>100 µM,>100 µM,20.8 ± 10.9 µM,37.7 ± 2.84 µM,21.3 ± 1.33 µM,++ (++ <10% positive cells in 24 h),50 µM,50 µM,50 µM,25 µM,>200 µM,>200 µM,,,ROS induction ([8]; HEK 293): did not induce a significant level of ROS; Incubation time at which significant/critical ROS level was noted ([9]; HL-60): 15 min
"CC[C@H](C)[C@H](NC(=O)[C@H](CCCCN)NC(=O)[C@H](CCCCN)NC(=O)[C@H](C)NC(=O)[C@H](CC(C)C)NC(=O)[C@H](C)NC(=O)[C@H](C)NC(=O)[C@H](CC(C)C)NC(=O)[C@H](C)NC(=O)[C@H](CCCCN)NC(=O)[C@H](CC(C)C)NC(=O)[C@H](CC(N)=O)NC(=O)[C@@H](NC(=O)[C@H](CCCCN)NC(=O)CNC(=O)[C@H](CC(C)C)NC(=O)[C@H](CC(C)C)NC(=O)[C@H](Cc1ccc(O)cc1)NC(=O)CNC(=O)[C@H](C)NC(=O)c1cn2c3c(c(N4CCN(C)CC4)c(F)cc3c1=O)OC[C@@H]2C)[C@@H](C)CC)C(=O)N[C@@H](CC(C)C)C(N)=O [Compound 4, LVX-TP10-NH2]",1.6 µM,1.6 µM,1.6 µM,1.6 µM,50 µM,50 µM,100 µM,100 µM,22.5 ± 9.7 µM,72.6 ± 13 µM,52.9 ± 8.15 µM,++ (++ <10% positive cells in 24 h),50 µM,100 µM,100 µM,25 µM,>200 µM,100 µM,< 10 µM,less than 20%,MIC90 against Gram-positive bacteria [15]: 1.6 µM; ROS level (positive cells) ([9]; HL-60): less than 15%; ROS HL-60 [9]: + (+ <15% positive cells in 24 h); MIC90 [10]: 100 µM
CC[C@H](C)[C@H](NC(=O)[C@H](CCCCN)NC(=O)[C@H](CCCCN)NC(=O)[C@H](C)NC(=O)[C@H](CC(C)C)NC(=O)[C@H](C)NC(=O)[C@H](C)NC(=O)[C@H](CC(C)C)NC(=O)[C@H](C)NC(=O)[C@H](CCCCN)NC(=O)[C@H](CC(C)C)NC(=O)[C@H](CC(N)=O)NC(=O)[C@@H](NC(=O)[C@H](CCCCN)NC(=O)CNC(=O)[C@H](CC(C)C)NC(=O)[C@H](CC(C)C)NC(=O)[C@H](Cc1ccc(O)cc1)NC(=O)CNC(=O)[C@H](C)NC(=O)[C@@H](N)CS)[C@@H](C)CC)C(=O)N[C@@H](CC(C)C)C(N)=O [CTP10-NH2],,,,,,,,,19.5 ± 2.93 µM,60 ± 5.75 µM,51.6 ± 8.66 µM,,,,,,,,,,
"CC[C@H](C)[C@H](NC(=O)[C@H](CCCCN)NC(=O)[C@H](CCCCN)NC(=O)[C@H](C)NC(=O)[C@H](CC(C)C)NC(=O)[C@H](C)NC(=O)[C@H](C)NC(=O)[C@H](CC(C)C)NC(=O)[C@H](C)NC(=O)[C@H](CCCCN)NC(=O)[C@H](CC(C)C)NC(=O)[C@H](CC(N)=O)NC(=O)[C@@H](NC(=O)[C@H](CCCCN)NC(=O)CNC(=O)[C@H](CC(C)C)NC(=O)[C@H](CC(C)C)NC(=O)[C@H](Cc1ccc(O)cc1)NC(=O)CNC(=O)[C@H](C)NC(=O)[C@@H](N)CSSC[C@H](NC(=O)c1cn2c3c(c(N4CCN(C)CC4)c(F)cc3c1=O)OC[C@@H]2C)C(=O)O)[C@@H](C)CC)C(=O)N[C@@H](CC(C)C)C(N)=O [Compound 5, LVXC-S-S-CTP10-NH2]",6.25 µM,6.25 µM,3.125 µM,3.125 µM,3.125 µM,3.125 µM,12.5 µM,25 µM,41.3 ± 1.1 µM,102 ± 4.9 µM,105 ± 15.6 µM,++ (++ <10% positive cells in 24 h),12.5 µM,12.5 µM,25 µM,12.5 µM,>200 µM,50 µM,< 50 µM,less than 20%,ROS level (positive cells) ([9]; HL-60): less than 15%; ROS HL-60 [9]: ++ (++ <10% positive cells in 24 h); MIC90 [10]: 25 µM; MHC50 (concentration causing 50% hemolysis) [17]: 140 µg/mL; MHC50 (concentration causing 50% hemolysis) ([17]; converted from μg/mL): ~ 51 μM
